# According to ChEMBL document CHEMBL1132821, “2,4,5-Trisubstituted imidazoles: novel nontoxic modulators of P-glycoprotein mediated multidrug resistance. Part 1” (Bioorg Med Chem Lett, 2000):
# Experiments:
# [1] = molecular target: ATP-dependent translocase ABCB1 (Homo sapiens, UniProt P08183); test: Evaluated for inhibition of growth of CEM/VLB1000 cell line using multidrug resistance (MDR) potentiation assay
# MES-SA/Dx5 [2] = test: Compound (1 uM) was evaluated for the inhibition of cell growth in MES-SA/DX5** cell line (over expresses Pgp and is for Doxorubicin resistant) in the presence of doxorubicin; assay type: functional; settings: Homo sapiens, read-out: ED50 (the source's name)
# MES-SA/Dx5 [3] = test: Compound (1 uM) was evaluated for the inhibition of cell growth in MES-SA/DX5** cell line (over expresses Pgp and is for Doxorubicin resistant) in the presence of taxol; assay type: functional; settings: Homo sapiens, read-out: ED50 (the source's name)
# NCI/ADR-RES [4] = test: Compound (1 uM) was evaluated for the inhibition of cell growth in MCF-7/ADR* cell line (over expresses Pgp and is for Doxorubicin resistant) in the presence of vinblastine; assay type: functional; settings: Homo sapiens, read-out: ED50 (the source's name)
# NCI/ADR-RES [5] = test: Compound (1 uM) was evaluated for the inhibition of cell growth in MCF-7/ADR* cell line (over expresses Pgp and is for Doxorubicin resistant) in the presence of Taxol; assay type: functional; settings: Homo sapiens, read-out: ED50 (the source's name)
# NCI/ADR-RES [6] = test: Compound (1 uM) was evaluated for the inhibition of cell growth in MCF-7/ADR cell line (over expresses Pgp and is for Doxorubicin resistant) in the presence of Taxol; assay type: functional; settings: Homo sapiens, read-out: ED50 (the source's name)
# NCI/ADR-RES [7] = test: Compound (1 uM) was evaluated for the inhibition of cell growth in MCF-7/ADR cell line (over expresses Pgp and is for Doxorubicin resistant) in the presence of vinblastine; assay type: functional; settings: Homo sapiens, read-out: ED50 (the source's name)
# MES-SA/Dx5 [8] = test: Compound (1 uM) was evaluated for the inhibition of cell growth in MES-SA/DX5 cell line (over expresses Pgp and is Doxorubicin resistant) in the presence of doxorubicin; assay type: functional; settings: Homo sapiens, read-out: ED50 (the source's name)
# MES-SA/Dx5 [9] = test: Compound (1 uM) was evaluated for the inhibition of cell growth in MES-SA/DX5 cell line (over expresses Pgp and is for Doxorubicin resistant) in the presence of taxol; assay type: functional; settings: Homo sapiens, read-out: ED50 (the source's name)
# Chain of ATP-dependent translocase ABCB1 (P08183 whole entry): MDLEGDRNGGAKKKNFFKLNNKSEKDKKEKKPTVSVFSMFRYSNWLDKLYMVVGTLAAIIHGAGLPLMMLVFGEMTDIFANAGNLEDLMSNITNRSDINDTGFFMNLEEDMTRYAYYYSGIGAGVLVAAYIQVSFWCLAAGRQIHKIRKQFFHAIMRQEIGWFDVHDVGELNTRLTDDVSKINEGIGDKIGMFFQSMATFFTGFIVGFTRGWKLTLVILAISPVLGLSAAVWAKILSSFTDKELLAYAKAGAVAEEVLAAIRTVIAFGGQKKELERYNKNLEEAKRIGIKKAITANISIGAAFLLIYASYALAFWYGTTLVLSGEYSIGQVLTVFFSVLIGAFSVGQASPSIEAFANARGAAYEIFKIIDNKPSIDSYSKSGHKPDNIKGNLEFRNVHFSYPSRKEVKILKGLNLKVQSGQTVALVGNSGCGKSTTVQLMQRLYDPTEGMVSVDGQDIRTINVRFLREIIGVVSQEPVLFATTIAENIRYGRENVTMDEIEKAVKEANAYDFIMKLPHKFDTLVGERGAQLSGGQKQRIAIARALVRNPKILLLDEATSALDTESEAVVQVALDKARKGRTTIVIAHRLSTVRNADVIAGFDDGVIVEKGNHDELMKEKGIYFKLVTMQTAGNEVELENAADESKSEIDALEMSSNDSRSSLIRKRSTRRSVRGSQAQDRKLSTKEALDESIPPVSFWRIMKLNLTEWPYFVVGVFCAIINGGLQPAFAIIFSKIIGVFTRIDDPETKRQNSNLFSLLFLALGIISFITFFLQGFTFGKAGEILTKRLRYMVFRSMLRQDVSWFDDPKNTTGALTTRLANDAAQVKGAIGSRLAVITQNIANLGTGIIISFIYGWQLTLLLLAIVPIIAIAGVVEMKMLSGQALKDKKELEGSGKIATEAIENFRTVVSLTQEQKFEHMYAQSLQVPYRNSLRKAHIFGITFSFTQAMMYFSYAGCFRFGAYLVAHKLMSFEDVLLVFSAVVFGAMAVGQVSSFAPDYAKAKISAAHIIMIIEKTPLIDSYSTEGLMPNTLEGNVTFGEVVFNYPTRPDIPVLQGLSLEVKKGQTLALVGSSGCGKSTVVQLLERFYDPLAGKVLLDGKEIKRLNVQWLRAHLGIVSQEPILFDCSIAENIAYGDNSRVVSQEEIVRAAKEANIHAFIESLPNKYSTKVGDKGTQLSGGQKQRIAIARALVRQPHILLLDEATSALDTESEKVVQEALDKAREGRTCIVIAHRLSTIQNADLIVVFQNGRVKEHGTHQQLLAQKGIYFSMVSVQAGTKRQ
Compound,GI50 ([1]; read-out: ED50) [nM],also measured
COC(=O)/C=C/c1ccc(-c2nc(-c3ccc(N(C)C)cc3)c(-c3ccc(N(C)C)cc3)[nH]2)cc1,300,
CN(C)c1ccc(-c2nc(-c3ccc(O)cc3)[nH]c2-c2ccc(N(C)C)cc2)cc1,5000,
CCCCCCn1c(-c2ccc(C(=O)OC)cc2)nc(-c2ccc(N(C)C)cc2)c1-c1ccc(N(C)C)cc1,,GI50 [1]: 6000 nM
COCCOC/C=C/c1ccc(-c2nc(-c3ccc(N(C)C)cc3)c(-c3ccc(N(C)C)cc3)[nH]2)cc1,90,
CN(C)c1ccc(-c2nc(-c3ccc(/C=C/COc4ccccc4)cc3)[nH]c2-c2ccc(N(C)C)cc2)cc1,450,
COCCCCc1ccc(-c2nc(-c3ccc(N(C)C)cc3)c(-c3ccc(N(C)C)cc3)[nH]2)cc1,1100,
COc1ccc(CCN(C)CCCC(C#N)(c2ccc(OC)c(OC)c2)C(C)C)cc1OC (stereo unspecified),,EC50 (MES-SA/Dx5 [2]): 3 µg/mL; EC50 (MES-SA/Dx5 [3]): 2.5 µg/mL; EC50 (NCI/ADR-RES [4]): 0.251 µg/mL; EC50 (NCI/ADR-RES [5]): 2.5 µg/mL
CN(C)c1ccc(-c2nc(-c3ccc(O)cc3)n(CCc3ccccc3)c2-c2ccc(N(C)C)cc2)cc1,1000,
CN(C)C/C=C/c1ccc(-c2nc(-c3ccc(N(C)C)cc3)c(-c3ccc(N(C)C)cc3)[nH]2)cc1,1300,
CCCCOC/C=C/c1ccc(-c2nc(-c3ccc(N(C)C)cc3)c(-c3ccc(N(C)C)cc3)[nH]2)cc1,,GI50 [1]: 110 nM
CN(C)c1ccc(-c2nc(-c3ccc(/C=C/C(=O)O)cc3)[nH]c2-c2ccc(N(C)C)cc2)cc1,10000,
CN(C)c1ccc(-c2nc(-c3ccc(C(=O)O)cc3)[nH]c2-c2ccc(N(C)C)cc2)cc1,60000,
CCCCCCn1c(-c2ccc(C(=O)O)cc2)nc(-c2ccc(N(C)C)cc2)c1-c1ccc(N(C)C)cc1,2000,
COC(=O)c1ccc(-c2nc(-c3ccc(N(C)C)cc3)c(-c3ccc(N(C)C)cc3)[nH]2)cc1,600,
COCCCc1ccc(-c2nc(-c3ccc(N(C)C)cc3)c(-c3ccc(N(C)C)cc3)[nH]2)cc1,300,
COC(=O)C1CC1c1ccc(-c2nc(-c3ccc(N(C)C)cc3)c(-c3ccc(N(C)C)cc3)[nH]2)cc1 (stereo unspecified),310,
COC(=O)CCc1ccc(-c2nc(-c3ccc(N(C)C)cc3)c(-c3ccc(N(C)C)cc3)[nH]2)cc1,1000,
COC/C=C/c1ccc(-c2nc(-c3ccc(N(C)C)cc3)c(-c3ccc(N(C)C)cc3)[nH]2)cc1,130,
CN(C)c1ccc(-c2nc(-c3ccc(/C=C/C#N)cc3)[nH]c2-c2ccc(N(C)C)cc2)cc1,600,
CN(C)c1ccc(-c2nc(-c3ccc(C(=O)O)cc3)n(CCc3ccccc3)c2-c2ccc(N(C)C)cc2)cc1,10000,
CCN(CC)C(=O)OC/C=C/c1ccc(-c2nc(-c3ccc(N(C)C)cc3)c(-c3ccc(N(C)C)cc3)[nH]2)cc1,,GI50 [1]: 880 nM
CN(C)c1ccc(-c2nc(-c3ccc(/C=C/C(=O)O)cc3)n(CCc3ccccc3)c2-c2ccc(N(C)C)cc2)cc1,20000,
CCOC/C=C/c1ccc(-c2nc(-c3ccc(N(C)C)cc3)c(-c3ccc(N(C)C)cc3)[nH]2)cc1,80,EC50 (NCI/ADR-RES [6]): 0.036 µg/mL; EC50 (NCI/ADR-RES [7]): 0.01 µg/mL; EC50 (MES-SA/Dx5 [8]): 0.089 µg/mL; EC50 (MES-SA/Dx5 [9]): 0.024 µg/mL
CN(C)c1ccc(-c2nc(-c3ccc(/C=C/COCc4ccccc4)cc3)[nH]c2-c2ccc(N(C)C)cc2)cc1,300,
CCCCC(=O)OC/C=C/c1ccc(-c2nc(-c3ccc(N(C)C)cc3)c(-c3ccc(N(C)C)cc3)[nH]2)cc1,480,
CC(C)OC(=O)/C=C/c1ccc(-c2nc(-c3ccc(N(C)C)cc3)c(-c3ccc(N(C)C)cc3)[nH]2)cc1,,EC50 (MES-SA/Dx5 [2]): 0.34 µg/mL; EC50 (MES-SA/Dx5 [3]): 0.13 µg/mL; EC50 (NCI/ADR-RES [4]): 0.028 µg/mL; EC50 (NCI/ADR-RES [5]): 0.15 µg/mL
